{"source": "ChEMBL document CHEMBL1150954", "about": "“Isolation and synthesis of an alpha-malamic acid derivative from Justicia ghiesbreghtiana” (J Nat Prod, 1998)", "test_system": "Mycobacterium tuberculosis", "assay": "Antibacterial activity against Mycobacterium tuberculosis", "assay_type": "functional, organism-based", "note": "Active and inactive are the calls of the source. The calls are words filed in the database; no cut-off is given here.", "data": [{"smiles": "COc1ccc(NC(=O)[C@@H](O)CC(=O)O)cc1OC", "values": [{"measurement": "Activity", "value": "inactive"}]}]}
